In paper PMC4666646, “The Structure of the RNA-Dependent RNA Polymerase of a Permutotetravirus Suggests a Link between Primer-Dependent and Primer-Independent Polymerases” (PLoS Pathogens, 2015):

Columns and labels:
TaVpol (TaV RdRP domain) [1] = target: T1, TaVpol (TaV RdRP domain) (Thosea asigna virus, UniProt Q6A562); conditions: MnCl2, ssRNA template 5'-[…]; active site of molecule B, base stacked on Y611 and F613 of loop λ6
TaVpol (TaV RdRP domain) [2] = target: T1, TaVpol (TaV RdRP domain); assay: X-ray crystal structure, […] Å; type: binding; set-up: RdRP domain, first 674 residues of replicase ORF1 (1257 residues), 75 kDa fragment released by proteolysis in Hi5 insect cells; N-terminal 6xHis tag and TEV site, tag cut for biochemical assays; dimer; conditions: MgCl2; triphosphate in rNTP tunnel (nucleoside disordered); second site in thumb subdomain (M556, T560, D563, E601)
[3] = target: TaVpol (RdRP domain of Thosea asigna virus ORF1, first 674 residues) (Thosea asigna virus); assay: SEC; analytic chromatography on a calibrated Superdex 200 5/150 column of purified proteins; for TaVpol also the final purification step on Superdex 200 HR 10/300 (50 mM MES pH 6.0, 500 mM NaCl, 10% glycerol, 5 mM DTT)
TaVpol (TaV RdRP domain) [4] = target: T1, TaVpol (TaV RdRP domain); assay: X-ray crystal structure, […] Å; type: binding; set-up: RdRP domain, first 674 residues of replicase ORF1 (1257 residues), 75 kDa fragment released by proteolysis in Hi5 insect cells; N-terminal 6xHis tag and TEV site, tag cut for biochemical assays; dimer; conditions: MgCl2; triphosphate in rNTP tunnel (nucleoside disordered); second site in thumb subdomain (M556, T560, D563, E601); remark: listed apart in the source
[5] = target: T2, TaVpol (RdRP-containing N-terminal fragment of ORF1) (Thosea asigna virus, UniProt Q6A562 1-674); assay: X-ray crystallography; ATP, CTP, 5 mM MnCl2; 3.5 A; RNA density weak, only phosphate peaks in template channel, RNA not built; Complex formation: 1 mg/ml TaVpol, 1:1.5 protein:RNA, 50 mM MES pH 6.0, 200 mM NaCl, 10% glycerol, 5 mM DTT, 30 C 30 min; crystals at 20 C in 12% PEG 8K, 750 mM Li2SO4; conditions: protein: recombinant; tags: N-terminal 6xHis with TEV site (tag not removed for RNA complexes as far as stated); chain copies: 2; single strand
[6] = target: T2, TaVpol (RdRP-containing N-terminal …); assay: X-ray crystallography; Complex formation: 1 mg/ml TaVpol, 1:1.5 protein:RNA, 50 mM MES pH 6.0, 200 mM NaCl, 10% glycerol, 5 mM DTT, 30 C 30 min; crystals at 20 C in 12% PEG 8K, 750 mM Li2SO4; conditions: protein: recombinant; tags: N-terminal 6xHis with TEV site (tag not removed for RNA complexes as far as stated); chain copies: 2; single strand

Nc1ncnc2c1ncn2[C@@H]1O[C@H](COP(=O)(O)OP(=O)(O)OP(=O)(O)O)[C@@H](O)[C@H]1O [ATP]
X-ray crystal structure, 3.5 Å (TaVpol (TaV RdRP domain) [1]): This density, was interpreted as the presence of a bound ATP molecule

Nc1ccn([C@@H]2O[C@H](COP(=O)(O)OP(=O)(O)OP(=O)(O)O)[C@@H](O)[C@H]2O)c(=O)n1 [CTP]
X-ray crystal structure, 2.25 Å (TaVpol (TaV RdRP domain) [2]): TaVpol-GTP and TaVpol-CTP co-crystals were also obtained in presence of MgCl2

TaVpol (RdRP domain of Thosea asigna virus ORF1, first 674 residues) (domain or fragment)
stoichiometry N [3]: 2

Nc1nc2c(ncn2[C@@H]2O[C@H](COP(=O)(O)OP(=O)(O)OP(=O)(O)O)[C@@H](O)[C@H]2O)c(=O)[nH]1 [GTP]
X-ray crystal structure, 2.3 Å (TaVpol (TaV RdRP domain) [4]): TaVpol-GTP and TaVpol-CTP co-crystals were also obtained in presence of MgCl2

CCCAUUCGACUCCUG (ssRNA) [15-nt ssRNA template]
binding result [5]: binds

GUAUACUACACCCAUUCGACUCCUG (ssRNA) [25-nt ssRNA template]
binding result [6]: binds
